Patent US20180170903A1, “PYRIDIN-3-YL ACETIC ACID DERIVATIVES AS INHIBITORS OF HUMAN IMMUNODEFICIENCY VIRUS REPLICATION” (ViiV HEALTHCARE UK (NO.5) LIMITED, priority 2015, published 2018)
Like-named read-outs stand apart in the source and are kept apart here.

Tested on: NL-RLuc virus (recombinant HIV NL4-3 proviral clone with Renilla Luciferase) in MT-2 cells
Assay: Inhibition of HIV Replication (NL-RLuc luciferase reporter virus, MT-2 cells)
Format: cell-based
Details: MT2, 120 h
Description: Inhibition of HIV Replication:
A recombinant NL-RLuc proviral clone was constructed in which a section of the nef gene from NL4-3 was replaced with the Renilla Luciferase gene. This virus is fully infectious and can undergo multiple cycles of replication in cell culture. In addition, the luciferous reporter provides a simple and easy method for quantitating the extent of virus growth and consequently, the antiviral activity of test compounds. The plasmid pNLRLuc contains the proviral NL-Rluc DNA cloned into pUC 18 at the PvuII site. The NL-RLuc virus was prepared by transfection of 293T cells with the plasmid pNLRLuc. Transfections were performed using the LipofectAMINE PLUS kit from Invitrogen (Carlsbad, Calif.) according to the manufacturer and the virus generated was titered in MT-2 cells. For susceptibility analyses, the titrated virus was used to infect MT-2 cells in the presence of compound, and after 5 days of incubation, cells were processed and quantitated for virus growth by the amount of expressed luciferase. Assay media was RPMI 1640 supplemented with 10% heat inactivated fetal bovine serum (FBS), 100 units/ml penicillin G/100 units/ml streptomycin, 10 mM HEPES buffer pH 7.55 and 2 mM L-glutamine. The results from at least 2 experiments were used to calculate the EC50 values. Luciferase was quantitated using the Dual Luciferase kit from Promega (Madison, Wis.). Susceptibility of viruses to compounds was determined by incubation in the presence of serial dilutions of the compound. The 50% effective concentration (EC50) was calculated by using the exponential form of the median effect equation where (Fa)=1/[1+(ED50/drug conc.)^m](Johnson V A, Byington R T. Infectivity Assay. In Techniques in HIV Research. ed. Aldovini A, Walker B D. 71-76. New York: Stockton Press. 1990). Activity equal to A refers to a compound having an EC50≤100 nM, while B and C denote compounds having an EC50 between 100 nM and 1 uM (B) or >1 uM (C).

Structure (SMILES)	EC50 (read-out: Activity) [µM]	EC50 (read-out: EC50 μM) [µM]
Cc1nc(C)c([C@H](OC(C)(C)C)C(=O)O)c(N2CCC(C)(C)CC2)c1-c1ccc(COCc2ccc(F)cc2)cc1 [Example 51, (S)-2-(tert-Butoxy)-2-(4-(4,4-dimethylpiperidin-1-yl)-5-(4-(((4-fluorobenzyl)oxy)methyl)phenyl)-2,6-dimethylpyridin-3-yl)acetic acid]	> 1	–
Cc1nc(C)c([C@H](OC(C)(C)C)C(=O)O)c(N2CCC(C)(C)CC2)c1-c1ccc(CN(Cc2ccc(F)cc2)C(=O)c2ccc(C(F)(F)F)cc2)cc1 [Example 46, (S)-2-(tert-butoxy)-2-(4-(4,4-dimethylpiperidin-1-yl)-5-(4-((N-(4-fluorobenzyl)-4-(trifluoromethyl)benzamido)methyl)phenyl)-2,6-dimethylpyridin-3-yl)acetic acid]	< 0.1	0.016
Cc1nc(C)c([C@H](OC(C)(C)C)C(=O)O)c(N2CCC(C)(C)CC2)c1-c1ccc(CN(Cc2ccc(F)cc2)C(=O)C2CCCC2)cc1 [Example 20, (S)-2-(tert-butoxy)-2-(4-(4,4-dimethylpiperidin-1-yl)-5-(4-((N-(4-fluorobenzyl)cyclopentanecarboxamido)methyl)phenyl)-2,6-dimethylpyridin-3-yl)acetic acid]	< 0.1	–
CON(Cc1ccc(F)cc1)Cc1ccc(-c2c(C)nc(C)c([C@H](OC(C)(C)C)C(=O)O)c2N2CCC(C)(C)CC2)cc1 [Example 10, (S)-2-(tert-butoxy)-2-(4-(4,4-dimethylpiperidin-1-yl)-5-(4-(((4-fluorobenzyl)(methoxy)amino)methyl)phenyl)-2,6-dimethylpyridin-3-yl)acetic acid]	< 0.1	–
COC(=O)c1ccc(CNCc2ccc(-c3c(C)nc(C)c([C@H](OC(C)(C)C)C(=O)O)c3N3CCC(C)(C)CC3)cc2)cc1 [Example 18, (S)-2-(tert-butoxy)-2-(4-(4,4-dimethylpiperidin-1-yl)-5-(4-(((4-(methoxycarbonyl)benzyl)amino)methyl)phenyl)-2,6-dimethylpyridin-3-yl)acetic acid]	0.1 to 1	0.228
Cc1nc(C)c([C@H](OC(C)(C)C)C(=O)O)c(N2CCC(C)(C)CC2)c1-c1ccc(CN(Cc2ccc(F)cc2)C(=O)C2CCC2)cc1 [Example 42, (S)-2-(tert-butoxy)-2-(4-(4,4-dimethylpiperidin-1-yl)-5-(4-((N-(4-fluorobenzyl)cyclobutanecarboxamido)methyl)phenyl)-2,6-dimethylpyridin-3-yl)acetic acid]	< 0.1	–
Cc1nc(C)c([C@H](OC(C)(C)C)C(=O)O)c(N2CCC(C)(C)CC2)c1-c1ccc(CNCc2ccc(C(=O)O)cc2)cc1 [Example 19, (S)-4-(((4-(5-(tert-butoxy(carboxy)methyl)-4-(4,4-dimethylpiperidin-1-yl)-2,6-dimethylpyridin-3-yl)benzyl)amino)methyl)benzoic acid]	> 1	2.07
Cc1nc(C)c([C@H](OC(C)(C)C)C(=O)O)c(N2CCC(C)(C)CC2)c1-c1ccc(CN(Cc2ccc(F)cc2)C(=O)c2ccccc2F)cc1 [Example 27, (S)-2-(tert-butoxy)-2-(4-(4,4-dimethylpiperidin-1-yl)-5-(4-((2-fluoro-N-(4-fluorobenzyl)benzamido)methyl)phenyl)-2,6-dimethylpyridin-3-yl)acetic acid]	< 0.1	0.008
Cc1ccccc1C(=O)N(Cc1ccc(F)cc1)Cc1ccc(-c2c(C)nc(C)c([C@H](OC(C)(C)C)C(=O)O)c2N2CCC(C)(C)CC2)cc1 [Example 43, (S)-2-(tert-butoxy)-2-(4-(4,4-dimethylpiperidin-1-yl)-5-(4-((N-(4-fluorobenzyl)-2-methylbenzamido)methyl)phenyl)-2,6-dimethylpyridin-3-yl)acetic acid]	< 0.1	–
COc1cccc(C(=O)N(Cc2ccc(F)cc2)Cc2ccc(-c3c(C)nc(C)c([C@H](OC(C)(C)C)C(=O)O)c3N3CCC(C)(C)CC3)cc2)c1 [Example 37, (S)-2-(tert-butoxy)-2-(4-(4,4-dimethylpiperidin-1-yl)-5-(4-((N-(4-fluorobenzyl)-3-methoxybenzamido)methyl)phenyl)-2,6-dimethylpyridin-3-yl)acetic acid]	< 0.1	–
Cc1cc(C(=O)N(Cc2ccc(F)cc2)Cc2ccc(-c3c(C)nc(C)c([C@H](OC(C)(C)C)C(=O)O)c3N3CCC(C)(C)CC3)cc2)c(C)o1 [Example 29, (S)-2-(terr-butoxy)-2-(4-(4,4-dimethylpiperidin-1-yl)-5-(4-((N-(4-fluorobenzyl)-2,5-dimethylfuran-3-carboxamido)methyl)phenyl)-2,6-dimethylpyridin-3-yl)acetic acid]	< 0.1	–
COc1ccc(CCNCc2ccc(-c3c(C)nc(C)c([C@H](OC(C)(C)C)C(=O)O)c3N3CCC(C)(C)CC3)cc2)cc1 [Example 8, (S)-2-(tert-butoxy)-2-(4-(4,4-dimethylpiperidin-1-yl)-5-(4-(((4-methoxyphenethyl)amino)methyl)phenyl)-2,6-dimethylpyridin-3-yl)acetic acid]	< 0.1	0.09
COC(=O)N(Cc1ccc(F)cc1)Cc1ccc(-c2c(C)nc(C)c([C@H](OC(C)(C)C)C(=O)O)c2N2CCC(C)(C)CC2)cc1 [Example 32, (S)-2-(tert-butoxy)-2-(4-(4,4-dimethylpiperidin-1-yl)-5-(4-(((4-fluorobenzyl)(methoxycarbonyl)amino)methyl)phenyl)-2,6-dimethylpyridin-3-yl)acetic acid]	< 0.1	–
Cc1nc(C)c([C@H](OC(C)(C)C)C(=O)O)c(N2CCC(C)(C)CC2)c1-c1ccc(CNCC2CCCCC2)cc1 [Example 17, (S)-2-(tert-butoxy)-2-(5-(4-(((cyclohexylmethyl)amino)methyl)phenyl)-4-(4,4-dimethylpiperidin-1-yl)-2,6-dimethylpyridin-3-yl)acetic acid]	0.1 to 1	–
Cc1nc(C)c([C@H](OC(C)(C)C)C(=O)O)c(N2CCC(C)(C)CC2)c1-c1ccc(CN(Cc2ccc(F)cc2)C(=O)c2ccc(F)cc2)cc1 [Example 28, (S)-2-(tert-butoxy)-2-(4-(4,4-dimethylpiperidin-1-yl)-5-(4-((4-fluoro-N-(4-fluorobenzyl)benzamido)methyl)phenyl)-2,6-dimethylpyridin-3-yl)acetic acid]	< 0.1	–
Cc1nc(C)c([C@H](OC(C)(C)C)C(=O)O)c(N2CCC(C)(C)CC2)c1-c1ccc(CNCCC(C)(C)C)cc1 [Example 6, (S)-2-(tert-butoxy)-2-(5-(4-(((3,3-dimethylbutyl)amino)methyl)phenyl)-4-(4,4-dimethylpiperidin-1-yl)-2,6-dimethylpyridin-3-yl)acetic acid]	0.1 to 1	–
Cc1nc(C)c([C@H](OC(C)(C)C)C(=O)O)c(N2CCC(C)(C)CC2)c1-c1ccc(CN(C)Cc2ccc(F)cc2)cc1 [Example 7, (S)-2-(tert-butoxy)-2-(4-(4,4-dimethylpiperidin-1-yl)-5-(4-(((4-fluorobenzyl)(methyl)amino)methyl)phenyl)-2,6-dimethylpyridin-3-yl)acetic acid]	< 0.1	–
Cc1nc(C)c([C@H](OC(C)(C)C)C(=O)O)c(N2CCC(C)(C)CC2)c1-c1ccc(CN2CCc3ccccc3C2)cc1 [Example 53, (S)-2-(tert-Butoxy)-2-(5-(4-((3,4-dihydroisoquinolin-2(1H)-yl)methyl)phenyl)-4-(4,4-dimethylpiperidin-1-yl)-2,6-dimethylpyridin-3-yl)acetic acid]	< 0.1	0.076
Cc1cc(OCc2ccc(-c3c(C)nc(C)c([C@H](OC(C)(C)C)C(=O)O)c3N3CCC(C)(C)CC3)cc2)ccc1Cl [Example 50, (S)-2-(tert-Butoxy)-2-(5-(4-((4-chloro-3-methylphenoxy)methyl)phenyl)-4-(4,4-dimethylpiperidin-1-yl)-2,6-dimethylpyridin-3-yl)acetic acid]	< 0.1	–
Cc1nc(C)c([C@H](OC(C)(C)C)C(=O)O)c(N2CCC(C)(C)CC2)c1-c1ccc(CNCc2ccc(F)cc2)cc1 [Example 4, (S)-2-(tert-butoxy)-2-(4-(4,4-dimethylpiperidin-1-yl)-5-(4-(((4-fluorobenzyl)amino)methyl)phenyl)-2,6-dimethylpyridin-3-yl)acetic acid]	< 0.1	–
Cc1nc(C)c([C@H](OC(C)(C)C)C(=O)O)c(N2CCC(C)(C)CC2)c1-c1ccc(COC(C)(C)C)cc1 [Example 49, (S)-2-(tert-Butoxy)-2-(5-(4-(tert-butoxymethyl)phenyl)-4-(4,4-dimethylpiperidin-1-yl)-2,6-dimethylpyridin-3-yl)acetic acid]	< 0.1	–
Cc1ccc(CNCc2ccc(-c3c(C)nc(C)c([C@H](OC(C)(C)C)C(=O)O)c3N3CCC(C)(C)CC3)cc2)cc1 [Example 16, (S)-2-(tert-butoxy)-2-(4-(4,4-dimethylpiperidin-1-yl)-2,6-dimethyl-5-(4-(((4-methylbenzyl)amino)methyl)phenyl)pyridin-3-yl)acetic acid]	< 0.1	–
